Assay results taken from patent US10653173B2, “Method for masking unpleasant taste” (Analyticon Discovery GmbH, priority 2015, dated 2020).

Columns and labels:
[1] = Sensory panel: taste modulation of a potassium chloride solution; type: in vivo, human; settings: 50 μM, pH neutral, 1,500 mg KCl in 100 ml water
Method: The sensory evaluation of the samples was performed by a team of five experienced assessors. Details may be taken from the following Table 9: [table]

[2] = Sensory panel: taste of combination with saccharin; type: in vivo, human; settings: 10 μM with 80 ppm saccharin, pH neutral
Method: The sensory evaluation of the samples was performed by a team of five experienced assessors. The results may be taken from the following Table 3: [table]

[3] = Sensory panel: taste of combination with acesulfame-K; type: in vivo, human; settings: 25 μM with 150 ppm acesulfame-K, pH neutral
Method: The sensory evaluation of the samples was performed by a team of five experienced assessors. The results may be taken from the following Table 4: [table]

[4] = tested on: human bitter receptor cells; assay: In-vitro assay: intracellular calcium mobilisation (Fluo-4 AM) in human bitter receptor cell line stimulated with saccharin; type: cell-based; settings: human taste cells stimulated with 1 mM saccharin, fluorometric detection, 0.1-25 μM substance; read-out: IC50 (average inhibitory concentration of the antagonist)
Method: Human bitter receptor cells were established, and the activation of these cells was quantified in order to detect, by means of a cell-based test system, natural substances which reduce the bitterness of bitter principles. The change of the intracellular […] level was measured for quantitation of the activation of bitter receptor cells. In order to detect substances with inhibitory activity, a high-throughput cell-based in-vitro measurement system was established. […] The modulation of the intracellular […] level of the bitter receptor cells was quantitated by means of the […] fluorescence dye Fluo-4 AM in a microplate reader. […] The quantity of mobilised calcium may be quantitated by means of fluorescence, which increases in proportion with the concentration of calcium. […] 24 hours after seeding, the cells were dyed with 4 μM of the calcium-sensitive fluorescence dye Fluo-4 AM in HBSS (Hank's Balanced Salt Solution) buffer, and the mobilisation of calcium in living cells was measured in the microplate reader (FlexStation® […], Molecular Devices). […] The mobilisation of calcium was measured in the microplate reader at 37° C. The mobilisation of calcium was quantitated as the change of fluorescence (dF) after the addition of the substance, taking into account the basal fluorescence (F0) as dF/F0. […]

[5] = Sensory panel: taste modulation of green tea; type: in vivo, human; settings: vs 0.5% ethanol in tea
Method: The sensory evaluation of the samples was performed by a team of five experienced assessors. Details may be taken from the following Table 6: [table]

[6] = Sensory panel: taste modulation of grapefruit juice; type: in vivo, human
Method: The sensory evaluation of the samples was performed by a team of five experienced assessors. Details may be taken from the following Table 7: [table]

[7] = cited from earlier work

Compound | Evaluation (taste of potassium chloride solution) [1] | Evaluation (taste with saccharin) [2] | Evaluation (taste with acesulfame-K) [3] | IC50 [4] [nM] | Evaluation (taste of green tea) ([5]; 25 μM in Green tea) | Evaluation (taste of green tea) ([5]; 50 μM in Green tea) | Bitter taste of freshly squeezed grapefruit juice [6] | Daily uptake considered harmless [7]
CC(C)c1ccc2c(c1)CC[C@H]1[C@](C)(C(=O)O)CCC[C@]21C [dehydroabietic acid] | Less bitter than the comparison sample | Slightly bitter aftertaste | No bitter taste present any more | 1700 | Slightly bitter taste that quickly fades | As in 25 μM, but less astringent | significant reduction of the bitter taste without negatively influencing the fruit aroma and the refreshing tartness | –
C=C1C[C@@]23CC[C@H]4[C@@](C)(CCC[C@@]4(C)C(=O)O[C@@H]4O[C@H](CO)[C@@H](O)[C@H](O)[C@H]4O)[C@@H]2CC[C@]1(O[C@@H]1O[C@H](CO)[C@@H](O)[C@H](O)[C@H]1O[C@@H]1O[C@H](CO)[C@@H](O)[C@H](O)[C@H]1O)C3 [stevioside] | – | – | – | – | – | – | – | up to 4 mg per kilogramme of bodyweigh
